Test results reported in patent US20250171465A1, “AKT INHIBITORS” (Stablix, Inc., priority 2023, published 2025).

What follows are compounds tested on KU1919.1 (assay: Cell Titer Glo (CTG) proliferation assay, KU1919). Conditions: Homo sapiens, KU-19-19; KU1919.1 cells, 72.0 hrs.; read-out: AVE CTG Proliferation KU1919.1 72.0 hrs.
Type: cell-based
Experimental: Seed cells in 40 μL of cell culture media into each well of 384-well cell culture plate, spin them at room temperature at 1,000 RPM for 1 minute and then transfer the plates into 37° C. 5% CO2 incubator overnight. Next day, treat cells with 40 nL of diluted compound and return to incubator. After compound treatment for 3 days, Add 30 μL of CellTiter-Glo reagent (Promega) into each well to be detected. Then place the plates at room temperature for 30 min followed by reading on EnVision. Inhibition activity calculated as % DMSO=100×(LumSample-Lum low control)/(Lum high control-Lum low control) where high control is from cells treated with 0.1% DMSO and Low control obtained from PBS only. Use XLFit (equation 201) to calculate IC50 (A+ ((B−A)/(1[…]((x/C)^D)))) where A: Bottom, B: Top, C: IC50, D: Slope.

Row | Structure (SMILES) | IC50
1 | NC1(C(=O)N[C@@H](CCOCCCCCNC(=O)[C@H](NC(=O)c2cccc(C3CCCN(C(=O)C45CC(C4)C5)C3)c2)C2CCCCC2)c2ccc(Cl)cc2)CCN(c2ncnc3[nH]ccc23)CC1 (stereo partly drawn) [Compound I-296] | > 10 µM
2 | CC(C)(C)OC(=O)N1CCC(OC2CCN(CC[C@H](NC(=O)C3(N)CCN(c4ncnc5[nH]ccc45)CC3)c3ccc(Cl)cc3)CC2)CC1 [Compound I-316] | 1 to 5 µM
3 | NC1(C(=O)N[C@@H](CCN2CCC(OC3CCN(C(=O)[C@H](NC(=O)c4cccc(C5CN(C(=O)CNCc6ccc(F)cc6F)C5)c4)C4CCCCC4)CC3)CC2)c2ccc(Cl)cc2)CCN(c2ncnc3[nH]ccc23)CC1 [Compound I-245] | 0.5 to 1 µM
4 | CC(C)(C)OC(=O)N[C@@H](C(=O)NCC[C@H](NC(=O)C1(N)CCN(c2ncnc3[nH]ccc23)CC1)c1ccc(Cl)cc1)C1CCCCC1 [Compound I-313] | 1 to 5 µM
5 | NC1(C(=O)N[C@@H](CCNS(=O)(=O)CCCCNC(=O)[C@H](NC(=O)c2cccc(C3CN(C(=O)C4CC4)C3)c2)C2CCCCC2)c2ccc(Cl)cc2)CCN(c2ncnc3[nH]ccc23)CC1 [Compound I-228] | > 10 µM
6 | NC1(C(=O)N[C@@H](CCN2CCN(C(=O)CN3CCC(CN4CCN(C(=O)c5cccc(C6CCCN(C(=O)C7CC7)C6)c5)CC4)CC3)CC2)c2ccc(Cl)cc2)CCN(c2ncnc3[nH]ccc23)CC1 (stereo partly drawn) [Compound I-233] | 5 to 10 µM
7 | NC1(C(=O)N[C@@H](CCN2CCC(OC3CCN(C(=O)[C@H](NC(=O)c4ccc(C5CCN(C(=O)CNCc6ccc(F)cc6F)CC5)cc4)C4CCCCC4)CC3)CC2)c2ccc(Cl)cc2)CCN(c2ncnc3[nH]ccc23)CC1 [Compound I-220] | 1 to 5 µM
8 | C[C@@H]1C[C@@H](O)c2ncnc(N3CCN(C(=O)[C@H](CNCCNC(=O)CN4CCC(OC5CCN(C(=O)OC(C)(C)C)CC5)CC4)c4ccc(Cl)cc4)CC3)c21 [Compound I-314] | 1 to 5 µM
9 | NC1(C(=O)N[C@@H](CCNC(=O)[C@H](NC(=O)C2CC2)C2CCCCC2)c2ccc(Cl)cc2)CCN(c2ncnc3[nH]ccc23)CC1 [Compound I-237] | 5 to 10 µM
10 | C[C@@H]1C[C@@H](O)c2ncnc(N3CCN(C(=O)[C@@H](CCN4CCC(CN5CCN(C(=O)[C@H](NC(=O)c6cccc(C7CCCN(C(=O)C8CC8)C7)c6)C6CCCCC6)CC5)CC4)c4ccc(Cl)cc4)CC3)c21 (stereo partly drawn) [Compound I-266] | 1 to 5 µM
11 | NC1(C(=O)N[C@@H](CCN2CCN(C(=O)C34CCC(CN5CCN(C(=O)[C@H](NC(=O)c6cccc(C7CCCN(C(=O)C8CC8)C7)c6)C6CCCCC6)CC5)(CC3)OC4)CC2)c2ccc(Cl)cc2)CCN(c2ncnc3[nH]ccc23)CC1 (stereo partly drawn) [Compound I-232] | > 10 µM
12 | CC(C)(C)OC(=O)N[C@@H](C(=O)N1CCC(OC2CCN(CC[C@H](NC(=O)C3(N)CCN(c4ncnc5[nH]ccc45)CC3)c3ccc(Cl)cc3)CC2)CC1)C1CCCCC1 [Compound I-311] | 0.5 to 1 µM
13 | NC1(C(=O)N[C@@H](CCN2CCN(C(=O)CN3CCC(OC4CCN(C(=O)[C@H](NC(=O)c5ccc(C6CN(C(=O)C7CC7)C6)cc5)C5CCCCC5)CC4)CC3)CC2)c2ccc(Cl)cc2)CCN(c2ncnc3[nH]ccc23)CC1 [Compound I-229] | 1 to 5 µM
14 | NC1(C(=O)N[C@@H](CCN2CCN(C(=O)C34CCC(CN5CCN(C(=O)c6cccc(C7CCCN(C(=O)C8CC8)C7)c6)CC5)(CC3)OC4)CC2)c2ccc(Cl)cc2)CCN(c2ncnc3[nH]ccc23)CC1 (stereo partly drawn) [Compound I-246] | 1 to 5 µM
15 | NC1(C(=O)N[C@@H](CCNS(=O)(=O)CCCCNC(=O)[C@H](NC(=O)c2cccc(C3CCCN(C(=O)CNCc4ccc(F)cc4F)C3)c2)C2CCCCC2)c2ccc(Cl)cc2)CCN(c2ncnc3[nH]ccc23)CC1 (stereo partly drawn) [Compound I-239] | > 10 µM
16 | NC1(C(=O)N[C@@H](CCN2CCC(OC3CCN(C(=O)[C@H](NC(=O)c4cccc(C5CCCN(C(=O)CNCc6ccc(F)cc6F)C5)c4)C4CCCCC4)CC3)CC2)c2ccc(Cl)cc2)CCN(c2ncnc3[nH]ccc23)CC1 (stereo partly drawn) [Compound I-251] | 0.5 to 1 µM
17 | CCc1cccc(-c2cnc(C(=O)NCCOCCNCC[C@H](NC(=O)C3(N)CCN(c4ncnc5[nH]ccc45)CC3)c3ccc(Cl)cc3)c(NC(=O)CN3CCOCC3)c2)c1 [Compound I-178] | 1 to 5 µM
18 | C[C@@H]1C[C@@H](O)c2ncnc(N3CCN(C(=O)[C@H](CCN4CCC(CN5CCN(C(=O)[C@H](NC(=O)c6cccc(C7CCCN(C(=O)CNC8CC8)C7)c6)C6CCCCC6)CC5)CC4)c4ccc(Cl)cc4)CC3)c21 (stereo partly drawn) [Compound I-272] | 1 to 5 µM
19 | C[C@@H]1C[C@@H](O)c2ncnc(N3CCN(C(=O)[C@H](CN4CCC(OC5CCN(C(=O)[C@H](NC(=O)OC(C)(C)C)C6CCCCC6)CC5)CC4)c4ccc(Cl)cc4)CC3)c21 [Compound I-276] | 1 to 5 µM
20 | NC1(C(=O)N[C@@H](CCN2CCN(C(=O)CN3CCC(CN4CCN(C(=O)[C@H](NC(=O)c5cccc(C6CCCN(C(=O)C7CC7)C6)c5)C5CCCCC5)CC4)CC3)CC2)c2ccc(Cl)cc2)CCN(c2ncnc3[nH]ccc23)CC1 (stereo partly drawn) [Compound I-247] | 1 to 5 µM

Row | Structure (SMILES) | IC50
21 | CC1(C(=O)N2CCCC(c3cccc(C(=O)N[C@@H](C(=O)NCCCCCOCC[C@H](NC(=O)C4(N)CCN(c5ncnc6[nH]ccc56)CC4)c4ccc(Cl)cc4)C4CCCCC4)c3)C2)CC1 (stereo partly drawn) [Compound I-297] | 5 to 10 µM
22 | CCc1cccc(-c2cc(F)c(C(=O)N3CCC(CN4CCN(CC[C@H](NC(=O)C5(N)CCN(c6ncnc7[nH]ccc67)CC5)c5ccc(Cl)cc5)CC4)CC3)c(F)c2)c1 [Compound I-263] | 1 to 5 µM
23 | NC1(C(=O)N[C@@H](CCN2CCC(OC3CCN(C(=O)c4cccc(C5CCCN(C(=O)C6CC6)C5)c4F)CC3)CC2)c2ccc(Cl)cc2)CCN(c2ncnc3[nH]ccc23)CC1 (stereo partly drawn) [Compound I-290] | 1 to 5 µM
24 | NC1(C(=O)N[C@@H](CCN2CCC(OC3CCN(C(=O)[C@H](NC(=O)c4cccc(C5CCCN(C(=O)C6CC6)C5)c4)C4CCCCC4)CC3)CC2)c2ccc(Cl)cc2)CCN(c2ncnc3[nH]ccc23)CC1 (stereo partly drawn) [Compound I-249] | 1 to 5 µM
25 | C=CC(=O)N1CCN(c2ccc(CCC(=O)N3CCC(CN4CCN(CC[C@H](NC(=O)C5(N)CCN(c6ncnc7[nH]ccc67)CC5)c5ccc(Cl)cc5)CC4)CC3)o2)C(=O)C1 [Compound I-284] | 1 to 5 µM
26 | CCc1cccc(-c2cc(F)c(C(=O)N3CCC(OC4CCN(CC[C@H](NC(=O)C5(N)CCN(c6ncnc7[nH]ccc67)CC5)c5ccc(Cl)cc5)CC4)CC3)c(F)c2)c1 [Compound I-280] | 1 to 5 µM
27 | NC1(C(=O)N[C@@H](CCN2CCN(C(=O)CN3CCC(OC4CCN(C(=O)[C@H](NC(=O)c5cccc(C6CC6)c5F)C5CCCCC5)CC4)CC3)CC2)c2ccc(Cl)cc2)CCN(c2ncnc3[nH]ccc23)CC1 [Compound I-270] | 1 to 5 µM
28 | C[C@@H]1C[C@@H](O)c2ncnc(N3CCN(C(=O)[C@H](CCN4CCC(CN5CCN(C(=O)[C@H](NC(=O)c6cccc(C7CCCN(C(=O)CNCc8ccc(F)cc8F)C7)c6)C6CCCCC6)CC5)CC4)c4ccc(Cl)cc4)CC3)c21 (stereo partly drawn) [Compound I-274] | 0.5 to 1 µM
29 | NC1(C(=O)N[C@@H](CCN2CCC(OC3CCN(C(=O)c4cccc(C5CCCN(C(=O)CNCc6ccc(F)cc6F)C5)c4F)CC3)CC2)c2ccc(Cl)cc2)CCN(c2ncnc3[nH]ccc23)CC1 (stereo partly drawn) [Compound I-289] | 1 to 5 µM
30 | C[C@@H]1C[C@@H](O)c2ncnc(N3CCN(C(=O)[C@@H](CCN4CCC(CN5CCN(C(=O)[C@H](NC(=O)c6cccc(C7CCCN(C(=O)CNCc8ccc(F)cc8F)C7)c6)C6CCCCC6)CC5)CC4)c4ccc(Cl)cc4)CC3)c21 (stereo partly drawn) [Compound I-275] | 0.5 to 1 µM
31 | NC1(C(=O)N[C@@H](CCOCCN2CCC(OC3CCN(C(=O)[C@H](NC(=O)c4cccc(C5CCCN(C(=O)C67CC(C6)C7)C5)c4)C4CCCCC4)CC3)CC2)c2ccc(Cl)cc2)CCN(c2ncnc3[nH]ccc23)CC1 (stereo partly drawn) [Compound I-293] | 1 to 5 µM
32 | CC(C)(C)OC(=O)N[C@@H](C(=O)NCCCCS(=O)(=O)NCC[C@H](NC(=O)C1(N)CCN(c2ncnc3[nH]ccc23)CC1)c1ccc(Cl)cc1)C1CCCCC1 [Compound I-309] | 1 to 5 µM
33 | CC1(C(=O)N2CCCC(c3cccc(C(=O)N[C@@H](C(=O)N4CCC(OC5CCN(CCOCC[C@H](NC(=O)C6(N)CCN(c7ncnc8[nH]ccc78)CC6)c6ccc(Cl)cc6)CC5)CC4)C4CCCCC4)c3)C2)CC1 (stereo partly drawn) [Compound I-294] | 1 to 5 µM
34 | NC1(C(=O)N[C@@H](CCN2CCC(OC3CCN(C(=O)[C@H](NC(=O)c4cccc(C5CCCN(C(=O)CNC6CC6)C5)c4)C4CCCCC4)CC3)CC2)c2ccc(Cl)cc2)CCN(c2ncnc3[nH]ccc23)CC1 (stereo partly drawn) [Compound I-250] | 1 to 5 µM
35 | C[C@@H]1C[C@@H](O)c2ncnc(N3CCN(C(=O)[C@H](CNCCNC(=O)CNC45CCC(CN6CCN(C(=O)[C@H](NC(=O)c7cccc(C8CCCN(C(=O)CNC9CC9)C8)c7)C7CCCCC7)CC6)(CC4)OC5)c4ccc(Cl)cc4)CC3)c21 (stereo partly drawn) [Compound I-326] | 5 to 10 µM
36 | NC1(C(=O)N[C@@H](CCN2CCC(OC3CCN(C(=O)[C@H](NC(=O)c4cccc(C5CC5)c4F)C4CCCCC4)CC3)CC2)c2ccc(Cl)cc2)CCN(c2ncnc3[nH]ccc23)CC1 [Compound I-260] | 1 to 5 µM
37 | NC1(C(=O)N[C@@H](CCNS(=O)(=O)CCCCNC(=O)[C@H](NC(=O)c2cccc(C3CCCN(C(=O)C4CC4)C3)c2)C2CCCCC2)c2ccc(Cl)cc2)CCN(c2ncnc3[nH]ccc23)CC1 (stereo partly drawn) [Compound I-234] | > 10 µM
38 | CC(C)(C)OC(=O)N[C@@H](C(=O)N1CCN(CC23CCC(C(=O)N4CCN(CC[C@H](NC(=O)C5(N)CCN(c6ncnc7[nH]ccc67)CC5)c5ccc(Cl)cc5)CC4)(CC2)CO3)CC1)C1CCCCC1 [Compound I-308] | 1 to 5 µM
39 | C[C@@H]1C[C@@H](O)c2ncnc(N3CCN(C(=O)[C@H](CN4CCC(OC5CCN(C(=O)[C@H](NC(=O)c6cccc(C7CCCN(C(=O)C8(C)CC8)C7)c6F)C6CCCCC6)CC5)CC4)c4ccc(Cl)cc4)CC3)c21 (stereo partly drawn) [Compound I-291] | 1 to 5 µM
